The values that follow come from patent publication US10457707B2, “Substituted urea depsipeptide analogs as activators of the CLPP endopeptidase” (priority 2015, dated 2019).

For orientation: IC50 means the concentration needed to halve the response being measured.

Converted amounts (≈) assume the structure as drawn. Like-named read-outs stand apart in the source and are kept apart here. *1 amine or outer side, *2 acyl side, *3 side chain or, on linkers, in order; H or OH if unused. Where a SMILES comes first, the peptide text is derived from it. Bridges are numbered along the chain shown (N, C = ends). [ ]: non-standard residue; d: D form. The star is where a group is joined. NH(1,3-benzodioxol-5-yl) = c1cc2c(cc1N*)OCO2; Phe(3,5-F2) = N[C@@H](Cc1cc(F)cc(F)c1)C(=O)O; Morpholine(3S-CO) = O=C(O)[C@@H]1COCCN1; Pro(4S-Me) = C[C@@H]1CN[C@H](C(=O)O)C1; Pro(4R-Me) = C[C@H]1CN[C@H](C(=O)O)C1; NH(4-Me-phenyl) = Cc1ccc(N*)cc1; aThr = C[C@H](O)[C@H](N)C(=O)O; Pip = O=C(O)[C@@H]1CCCCN1; X3 = Cn1ccc2ccc(N*)cc21; CO = O=C([*:1])[*:2]

Assay type in all cases: cell-based
Data set [1] is described as follows: Cytotoxicity assay (CellTiter-Glo cell viability, 72 hours). Conditions: African green monkey. As to the method:
Cytotoxicity was determined by determining the effect of compounds on cell viability. Vero (kidney epithelial cells; ATCC CCL-81) monolayers were trypsinized and 5000 cells/well were seeded (10-15% confluency) into white-wall, flat bottom 96 well microwell plates (Corning) using enriched Dulbecco's Modified Eagle's Medium (Hyclone:DMEM/High Glucose) containing 10% Fetal Bovine Serum (ATCC-30-2020). Plates were incubated overnight at 37° C. in the presence of 5% CO2. Drug-free media was then replaced with media containing serial dilutions of test compound or DMSO carrier. After an additional 72 hours of incubation, viability was indirectly measured using the CellTiter-Glo® Luminescent Cell Viability (Promega) assay. Assay plates were read at peak emission wavelength of 560 nm using a EnVision® Multilabel Plate Reader (Perkin Elmer) or PHERAstar FS Multilabel reader (BMG, Cary, N.C.). […] USA, www.graphpad.com]. For each experiment, compounds were tested in duplicate. IC50 values presented are the range of two biologically independent experiments.

Data set [2] deals with Staphylococcus aureus, NRS70. In words: Minimal inhibitory concentration assay (microbroth dilution). Put shortly:
(§1)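 Broth microdilution per CLSI M7-A7: two-fold serial dilutions of compound in broth (top final concentration 200 μM) were inoculated with ~10^5 cfu/mL bacteria and incubated aerobically overnight at 37 °C. MIC was read visually as the lowest concentration preventing growth.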
In general terms: In broth dilution the organism is exposed to a series of concentrations in liquid medium.

Data set [3] deals with Staphylococcus aureus, ATCC 29213. The description is as above. Conditions: ATCC29213, read-out: Minimal Inhibitory Concentrations S. aureus ATCC 29213. An outline of the steps: as §1
The subject of data set [4] is Bacillus subtilis, ATCC 23857. Described as above. An outline of the steps: as §1
For data set [5], the system named is Streptococcus pyogenes, ATCC 700294. The data set is described as above. An outline of the steps: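 CLSI broth microdilution: two-fold serial compound dilutions in appropriate broth, inoculated and incubated aerobically overnight at 37° C. MIC read visually as lowest concentration preventing bacterial growth.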
Data set [6] deals with Streptococcus pneumoniae, R6. In words: Minimal inhibitory concentration assay. To be noted: read-out: Minimal Inhibitory Concentrations S. pneumoniae R6. As to the method:
It is understood, that in various aspects, the MIC is determined by a microbroth dilution method. […] In a still further aspect, the MIC is determined by a microbroth dilution method using Staphylococcus aureus, NRS70. […] In an even further aspect, the MIC is determined by a microbroth dilution method using Streptococcus pneumoniae, DAW27. […] In an even further aspect, the MIC is determined using Staphylococcus aureus, USA 300. In a still further aspect, the MIC is determined using Streptococcus pneumoniae, R6. In a further aspect, the MIC is determined using Staphylococcus aureus, USA 300 and compared to the MIC determined using Staphylococcus aureus, USA 300 wherein ClpP is inactivated, thus allowing confirmation that killing is via a ClpP-dependent pathway.
Two fold serial dilutions of test compound in 100 μL of the appropriate broth media were first prepared in 96-well round bottom microtiter plates (Nalgene Nunc International, Rochester, N.Y., USA). […] The plates were then incubated aerobically at 37° C. All strains were incubated overnight. After incubations, in all cases the MIC was recorded as the lowest concentration of drug that prevented bacterial growth. The bacterial strains for which MIC was determined as described in Table 4.

Data set [7] has as its system Staphylococcus aureus, USA 300. In words: Minimal inhibitory concentration assay. To be noted: USA300, read-out: Minimal Inhibitory Concentrations S. aureus USA 300. An outline of the steps: as §1
In data set [8] the test system is Staphylococcus aureus, USA 300 wherein ClpP is inactivated. In words: Minimal inhibitory concentration assay. An outline of the steps: as §1
The subject of data set [9] is Enterococcus faecalis, ATCC 33186. In words: Minimal inhibitory concentration assay (microbroth dilution). To be noted: Enterococcus faecalis, ATCC33186, read-out: Minimal Inhibitory Concentrations E. faecalis ATCC 33186. An outline of the steps: as §1
Setting [10] is: Staphylococcus aureus, NRS70; read-out: Minimal Inhibitory Concentrations S. aureus NRS70.
Setting [11] is: Bacillus subtilis, ATCC23857; read-out: Minimal Inhibitory Concentrations B. subtilis ATCC 23857.
Where [12] appears, read: Streptococcus pyogenes, ATCC700294; read-out: Minimal Inhibitory Concentrations S. pyogenes ATCC 700294.
Where [13] appears, read: Vero cells, 72 hours, growth inhibition, read-out: Cytotoxicity IC50.

In the case of `C[C@H]1C[C@H]2C(=O)O[C@@H](C)[C@H](NC(=O)[C@H](Cc3cc(F)cc(F)c3)NC(=O)Nc3ccc4c(c3)OCO4)C(=O)N3CCC[C@H]3C(=O)N3CCCC[C@H]3C(=O)N[C@@H](C)C(=O)N2C1` [Compound 196, (S)-2-(3-(benzo[d][1,3]dioxol-5-yl)ureido)-3-(3,5-difluorophenyl)-N-((2R,6S,8aS,14aS,20S,21S,23aS)-2,6,21-trimethyl-5,8,14,19,23-pentaoxooctadecahydro-1H,5H,14H,19H-pyrido[2,1-i]dipyrrolo[2,1-c:2′,1′-l][1]oxa[4,7,10,13]tetraazacyclohexadecin-20-yl)propanamide] ({NH(1,3-benzodioxol-5-yl)-CO}-[Phe(3,5-F2)][aThr]P[Pip]A[Pro(4S-Me)]; ester 2-C), it took 52.8 ± 4.9 µM to reach half-maximal inhibition in data set [1] (IC50 at 72 h).
With `C[C@@H]1C[C@H]2C(=O)O[C@@H](C)[C@H](NC(=O)[C@H](Cc3cc(F)cc(F)c3)NC(=O)Nc3ccc4c(c3)OCO4)C(=O)N3CCC[C@H]3C(=O)N3CCOC[C@H]3C(=O)N[C@@H](C)C(=O)N2C1` [Compound 199, (S)-2-(3-(benzo[d][1,3]dioxol-5-yl)ureido)-3-(3,5-difluorophenyl)-N-((6aS,12S,13S,15aS,17R,21S,23aS)-13,17,21-trimethyl-6,11,15,20,23-pentaoxooctadecahydro-6H,11H,15H-[1,4]oxazino[3,4-i]dipyrrolo[2,1-c:2′,1′-l][1]oxa[4,7,10,13]tetraazacyclohexadecin-12-yl)propanamide] ({NH(1,3-benzodioxol-5-yl)-CO}-[Phe(3,5-F2)][aThr]P[Morpholine(3S-CO)]A[Pro(4R-Me)]; ester 2-C), the MIC was 0.039 µM (≈ 0.0328 µg/mL) in [2] (setting [10]); 0.039 µM (≈ 0.0328 µg/mL) in data set [3]; 0.039 µM (≈ 0.0328 µg/mL) in data set [4] (setting [11]); 0.039 µM (≈ 0.0328 µg/mL) in [5] (setting [12]); less than 0.02 µM in data set [6]; 0.078 µM (≈ 0.0655 µg/mL) in data set [7]. Moreover, the “Minimal Inhibitory Concentrations S. aureus USA 300 ΔClpP” value in [8] was more than 20 µM.
As for `Cc1ccc(NC(=O)N[C@@H](Cc2cc(F)cc(F)c2)C(=O)N[C@@H]2C(=O)N3CCC[C@H]3C(=O)N3CCCC[C@H]3C(=O)N[C@@H](C)C(=O)N3C[C@@H](C)C[C@H]3C(=O)O[C@H]2C)cc1` [Compound 200, (S)-3-(3,5-difluorophenyl)-2-(3-(p-tolyl)ureido)-N-((2R,6S,8aS,14aS,20S,21S,23aS)-2,6,21-trimethyl-5,8,14,19,23-pentaoxooctadecahydro-1H,5H,14H,19H-pyrido[2,1-i]dipyrrolo[2,1-c:2′,1′-l][1]oxa[4,7,10,13]tetraazacyclohexadecin-20-yl)propanamide] ({NH(4-Me-phenyl)-CO}-[Phe(3,5-F2)][aThr]P[Pip]A[Pro(4S-Me)]; ester 2-C), the IC50 at 72 h in data set [1] (setting [13]) is 26.7 ± 3.6 µM. The “Minimal Inhibitory Concentrations S. aureus USA 300 ΔClpP” value in [8] turned out to be 100 µM.
On to `C[C@@H]1C[C@H]2C(=O)O[C@@H](C)[C@H](NC(=O)[C@H](Cc3cc(F)cc(F)c3)NC(=O)Nc3ccc4ccn(C)c4c3)C(=O)N3CCC[C@H]3C(=O)N3CCCC[C@H]3C(=O)N[C@@H](C)C(=O)N2C1` [Compound 306, (S)-3-(3,5-difluorophenyl)-2-(3-(1-methyl-1H-indol-6-yl)ureido)-N-((2R,6S,8aS,14aS,20S,21S,23aS)-2,6,21-trimethyl-5,8,14,19,23-pentaoxooctadecahydro-1H,5H,14H,19H-pyrido[2,1-i]dipyrrolo[2,1-c:2′,1′-l][1]oxa[4,7,10,13]tetraazacyclohexadecin-20-yl)propanamide] ({X3-CO}-[Phe(3,5-F2)][aThr]P[Pip]A[Pro(4R-Me)]; ester 2-C), for which the IC50 at 72 h in data set [1] (setting [13]) amounted to 11.8 ± 0.8 µM. Also, the MIC came to 0.078 µM (≈ 0.0661 µg/mL) in data set [2] (Staphylococcus aureus, NRS70, read-out: Minimal Inhibitory Concentrations S. aureus NRS70); 0.039 µM (≈ 0.033 µg/mL) in [9]; 0.156 µM (≈ 0.132 µg/mL) in data set [3]; 0.078 µM (≈ 0.0661 µg/mL) in [4] (Bacillus subtilis, ATCC23857, read-out: Minimal Inhibitory Concentrations B. subtilis ATCC 23857); 0.313 µM (≈ 0.265 µg/mL) in data set [5] (Streptococcus pyogenes, ATCC700294, read-out: Minimal Inhibitory Concentrations S. pyogenes ATCC 700294); 0.156 µM (≈ 0.132 µg/mL) in [7]. In data set [8], the “Minimal Inhibitory Concentrations S. aureus USA 300 ΔClpP” value was more than 20 µM.
`CN[C@@H]1[C@H](O)[C@H](NC)[C@H]2O[C@@]3(O)C(=O)C[C@@H](C)O[C@H]3O[C@@H]2[C@H]1O` [Spectinomycin, spectinomycin, reference compound]: the MIC in data set [2] (setting [10]) was more than 800 µM; in [3], 50 µM (≈ 16.6 µg/mL); in data set [4] (setting [11]), 6.3 µM (≈ 2.09 µg/mL); in [5] (setting [12]) it was 12.5 µM (≈ 4.15 µg/mL); in data set [6], 6.3 µM (≈ 2.09 µg/mL); in data set [7], 50 µM (≈ 16.6 µg/mL). For the same compound, the “Minimal Inhibitory Concentrations S. aureus USA 300 ΔClpP” value in data set [8] was found to be 25 µM.
